From patent publication US5916892A, “Trans cyclopentanyl deazaadenyl analogs useful as immunosuppressants” (Hoechst Marion Roussel, Inc., priority 1997, dated 1999)
Where a name gives a salt, the structure may show the parent alone.

Key:
[1] = system: Rat macrophage antigen presentation and the subsequent production of Interleukin-2; experiment: Regulation of macrophage antigen presentation (mBSA) to rat T-cell hybridoma, Interleukin-2 measured; format: cell-based, Lewis (LEW/N) rat
Method: Using the method of Ku (Cellular Immunology 130,(1990)) and a Lewis (LEW/N) rat T-cell hybridoma reactive with the protein methylated bovine serum albumin (mBSA), the ability of a compound of formula (1) to regulate M.phi. antigen presentation in vitro may be measured. Peritoneal macrophages obtained from LEW/N rats are plated into tissue culture and treated with 100 ug of mBSA and drug. A control is prepared similarly. After a period of 18 hours the cells are washed and incubated with the T-cell hybridoma for an additional 12 hours. Supernatants from these cultures are obtained and measured for content of Interleukin-2, a T-cell derived lymphokine which is produced by activated T-cells.

[2] = system: endotoxin-induced septic shock; experiment: Mouse endotoxin lethality model (D-galactosamine and LPS); format: in vivo, CF1 mice; details: 100 mg/kg i.p., pretreated at t=-1 hr; death observed over 8-72 hours
Method: Using the method of Silverstein, (J. Exp. Med. 173, 357 (1991)) a mouse endotoxin lethality model may be used to determine if a compound of formula (1) has the ability to inhibit endotoxin-induced septic shock which is dependent on the production of Tumor Necrosis Factor-α (TNF-α). CF1 mice pretreated at time (t)=-1 hr with drug are challenged with 18 mg of D-glactoseamine and 50 ng of LPS, then observed for death over an 8-72 hour period.

Nc1ncnc2c1ncn2[C@@H]1CC[C@@H](O)C1 [(1R,3R)-TRANS-1(9-ADENYL)CYCLOPENTAN-3-OL HYDROCHLORIDE] was tested, and the “T-cell activation / antigen presentation and Interleukin-2 production (in words)” value ([1]; 0.1 to 100 uM) was “inhibits T-cell activation”, the inhibition at 0.1 µM ([1]; Rattus norvegicus, Macrophage, In Vitro Concentration 0.1 uM, IL-2 production) was 7.6% and the inhibition at 1 µM ([1]; Rattus norvegicus, Macrophage, In Vitro Concentration 1.0 uM, IL-2 production) was 30.9%. The inhibition at 10 µM ([1]; Rattus norvegicus, Macrophage, In Vitro Concentration 10.0 uM, IL-2 production) was 48.7%, the inhibition at 100 µM ([1]; Rattus norvegicus, Macrophage, In Vitro Concentration 100.0 uM, IL-2 production) was 55.3% and the “protection against endotoxin lethality” value [2] was “protects against endotoxin lethality”.
